Reference: article PMC7853623, “Dose- and time-dependent tolerability and efficacy of organo-osmium complex FY26 and its tissue pharmacokinetics in hepatocarcinoma-bearing mice” (Metallomics: Integrated Biometal Science, 2020)

Assays:
[1] = Tumour and liver osmium uptake after a single ip dose (Experiment 5, ICP-MS); format: in vivo, C57Bl/6 mice
Procedure: Experiment 5 determined FY26⋅Cl uptake in mouse tumour and liver. Hepa1–6-bearing mice were randomly assigned to either treatment or control groups. They received a single ip injection of 5, 10, or 20 mg/kg of FY26⋅Cl or 0.1 M PBS (vehicle) at ZT6 (Table 1). The mice from pre-set subgroups were culled at 6, 24, or 48 h after injection. The subcutaneous tumours in both flanks, as well as liver, spleen, one kidney, an ileum, and a colon segment and brain were sampled and stored at −80°C.
For Experiments 1 and 2, FY26⋅PF6 was diluted in the vehicle, composed of 1% Tween 80 (Sigma-Aldrich, Gillingham, UK), 5% DMSO (Corning, New York, USA) and 94% of 0.9% saline (Prep room, Life Sciences, University of Warwick) under laminar flow. FY26⋅PF6 concentration was confirmed with ICP-MS. For Experiments 3–5, using FY26⋅Cl, a stock solution of 50 mg/ml FY26⋅Cl was prepared in 0.9% saline on the day of injection and diluted as required; the vehicle consisted of 0.9% saline.
Liver tissue was homogenized by manual mechanical grinding (pestle and mortar) while frozen under liquid N2. Once thawed, ∼90–110 mg of homogenized tissue was pipetted into microwave reaction vessels (10 ml), and tetramethylammonium hydroxide (TMAH, 25% m/v, 2 ml) was added. Tumour tissue was not homogenized and instead digested as whole tissue. It was weighed directly into microwave vials and TMAH was added (100 µl per 5 mg tissue, minimum of 500 µl added). The samples were digested via microwave irradiation (CEM SP-D Discover® microwave reactor, ≥300 W, ≥450 psi) at 200°C for 10 min. Digested samples were diluted in one part DDIW, and then centrifuged at 9000 rpm for 10 min at 20°C. The final analytical samples were prepared by a further 1 in 12.5 dilution in DDIW (total dilution of 1 in 25), ensuring a final TMAH concentration of 1% and total dissolved solids <0.1% […]. TMAH digestion was selected to circumvent the formation of volatile Os species with nitric acid.
Analyses of digested tissue samples were carried out on an Agilent Technologies ICP-MS 7900 spectrometer in a basic aqueous matrix of TMAH (1%, m/v). The osmium concentrations were determined via isotopic detection of ^189Os in gas (He) and no-gas modes, and samples were referenced internally to ^100Ru (10 ppb). A concentration calibration curve was produced by serial dilutions of an osmium standard (1000 ppm) in 1% TMAH: 0, 0.1, 0.25, 0.5, 1, 2.5, 5, 10, 25, 50, 100, 250, 500, and 1000 ppb.

[2] = tested on: A2780 ovarian cancer cells; test: In vitro growth inhibition assay (SRB), A2780; format: cell-based; details: A2780, 24 h exposure, 72 h recovery
Procedure: Dulbecco's modified Eagle's medium (DMEM) cell culture media, penicillin/streptomycin, foetal bovine serum, L-glutamine, phosphate-buffered saline (PBS) solution, and trypsin/EDTA were all purchased from Thermo Fisher (Loughborough, UK). DMEM was supplemented with 10% foetal bovine serum, 1% penicillin/streptomycin, and 2 mM L-glutamine. Cancer cell lines (A2780 and A549) were purchased from the European Collection of Cell Cultures (Salisbury, UK). Cell cultures were grown in T-75 or T-175 culture flasks as adherent monolayers. The cells were passaged two to three times per week whenever confluence reached 80–90%, using 0.25% trypsin/EDTA. Cell cultures were stored in an incubator at 37°C with a 5% CO2 humidified atmosphere.
Five thousand A2780 or A549 cells were seeded per well in 96-well plates. The cells were pre-incubated in drug-free media at 37°C for 48 h before adding a range of concentrations (0.01–100 µM) of the complexes to be tested. Typically, the complex was dissolved in dimethyl sulfoxide (DMSO) at 2 mM concentration, and then diluted with cell culture medium to give a 100 µM stock solution with 5% (v/v) DMSO. […] Absorbance measurements of the solubilized dye (Thermo Scientific Multiskan FC with SkanIt software 4.1 for Windows using a 470 nm filter) allowed the determination of viable treated cells compared to untreated controls. […]

CN(C)c1ccc(N=Nc2ccccn2)cc1.Cc1ccc(C(C)C)cc1.[Cl-].[I-].[Os+2] [FY26⋅Cl]
liver [Os] levels at 6 h relative to 20 or 10 mg/kg ([1]; 5 mg/kg single ip, 6 h): nearly halved
liver [Os] levels over time ([1]; 20 mg/kg single ip): remained almost constant until 48 h
tumour [Os] levels over time ([1]; 20 mg/kg single ip, 6, 24 and 48 h): remained almost constant over time
liver [Os] concentrations over time ([1]; 10 and 5 mg/kg single ip): decreased sharply at 24 h and remained stable until 48 h
tumour [Os] levels over time ([1]; 10 and 5 mg/kg single ip, tumours of both flanks): decreased at 24 h and slightly increased at 48 h
tumour uptake as compared to liver (less) ([1]; 6 h post-treatment, single ip dose at ZT6, both tumours): ~10 fold
difference in anticancer (antiproliferative) activity between X = Cl and X = PF6 [2]: lack of any statistically significant difference
